Assay results taken from patent US10196359B2, “2-alkyloxy benzene formyl arylamine compound and pharmaceutical use thereof” (FUDAN UNIVERSITY, priority 2014, dated 2019).
Like-named read-outs stand apart in the source and are kept apart here.

Target: T1, Sphingomyelin Synthase 2 (SMS2) (Homo sapiens, UniProt Q8NHU3)
T1 construct: made in house; used as homogenate
T1 sequence (Q8NHU3 1-365): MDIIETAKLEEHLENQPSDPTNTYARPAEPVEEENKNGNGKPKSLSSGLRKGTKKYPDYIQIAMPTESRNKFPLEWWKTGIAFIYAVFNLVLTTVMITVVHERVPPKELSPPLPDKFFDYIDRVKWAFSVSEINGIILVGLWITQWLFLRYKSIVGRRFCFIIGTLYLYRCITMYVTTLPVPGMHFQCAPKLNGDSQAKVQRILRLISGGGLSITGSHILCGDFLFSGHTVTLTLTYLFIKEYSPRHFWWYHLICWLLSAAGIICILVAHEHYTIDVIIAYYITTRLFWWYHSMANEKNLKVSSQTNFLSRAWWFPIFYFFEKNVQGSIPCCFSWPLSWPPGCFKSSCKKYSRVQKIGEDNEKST
Assay: In vitro inhibition of sphingomyelin synthase 2, HPLC fluorogenic quantitative detecting method (C6-NBD-ceramide to C6-NBD-SM, SMS2 high-expressed insect cell homogenate)
Assay type: biochemical
Conditions: for IC50: read-out: SMS2 Median Inhibitory Concentration IC50
Excerpt: The second aim of the present invention is to show the use of 2-alkoxy benzene formyl arylamines in preparing SMS small-molecule inhibitors. This invention evaluate SMS inhibitory activity of 2-alkoxy benzene formyl arylamines as scheme I through HPLC fluorogenic quantitative detecting method reported (Xiaodong Deng; Hong Sun; et al. Analytical Letters, 2012, 45:12, 1581-1589), which can make it possible to calculate the catalytic activity difference of SMS treated with inhibitors or not through content changes of NBD-ceramide and NBD-sphingomyelin.
9. The organic solvents were purchased from Shanghai Sinopharm Reagent Company; methanol is of HPLC grade; water is ultrapure water filtrated by Milli-Q pump and deionized and ultrafiltrated by 0.22 μm ultrafiltration membrane. Other biological supplies are purchased in domestic companies. 10. Preparation of SMS homogenate extraction buffer (Buffer1): (50 mM Tris hydrochloride, pH 7.4, 5% anhydrous sucrose, 1 mM ethylenediaminetetraacetic acid) 1.2114 g tris(hydroxymethyl)aminomethane hydrochloride (Tris-HCl) was dissolved in 100 ml distilled water. Then 84 ml 0.1 mol/L hydrochloric acid was added. Constant volume to 200 ml. Finally, 10 g sucrose and 58.45 mg EDTA were dissolved in the mixture. 11. Preparation of SMS test buffer […]: (100 mM Hepes, 30 mM MnCl2, 3% fatty acid free BSA): 1.1916 g 4-(2-hydroxyethyl)-1-peperazineethanesulfonic acid (Hepes), 0.2969 g MnCl2.4H2O and 0.3 g fatty acid free bovine serum albumin were dissolved in distilled water then constant volume to 50 ml. 12. Preparation of under tested compound solution: To each accurate weighed compound for 1˜2 mg, an appropriate amount of DMSO was added to formulate a stock solution of 6 mM precisely. To a certain volume of the DMSO stock solution of the test compound, the appropriate volume of DMSO was added to dilute the solution to the desired concentration. 13. SMS2 high-expressed insect cell homogenate was prepared by Xu Yanhui group from Institutes of Biomedical Sciences, Fudan University. Part 1 Activity Assay for Inhibition of 2-Alkoxy-Benzoyl Aromatic Amines to Sphingomyelin Synthase 2
250 μL tri-distilled water, 30 μL Buffer2, 4 μL SMS2 high-expressed insect cell homogenate (total protein content is 0.5 μg/μL) and 10 μL DMSO or DMSO solution of under tested compound were added to 1.5 mL eppendorf tube, vortex mixed for 30 seconds and then incubated in a 37° C. water bath for 0.5 h. 3 μL ethanol solution of DMPC (40 mM) and 3 μL ethanol solution of C6-NBD-Ceramide (1.16 mM) were added, vortex mixed for 30 seconds, and then incubate in a 37° C. water bath for 2.0 hours. To it 600 μL anhydrous ethanol was added vortex mixed for 1 minute and centrifuged 10 minutes in 10000 rpm and 600 μL supernatant was taken out and stored at 4° C. for HPLC analysis.
Using the same HPLC fluorogenic quantitative detecting method as reference (Xiaodong Deng; Hong Sun; et al. Analytical Letters, 2012, 45:12, 1581-1589) to analysize samples obtained above. Analysize and record peak areas of C6-NBD-SM (Asm) and C6-NBD-Ceramide (Acer) of each sample from blank group, positive control group (compound D2) and under tested compound group. The data were parallelly determined for 3 times. Calculate inhibition rate from the formula below: […]
The DMSO stock solution of under tested compound (6 mM) was diluted stepwise into five concentration gradient. 10 μL solution of each concentration was added into the trial system to prepare samples with the method mentioned in the first step of application case 12. The Asm values of the five concentration solution of tested compound were measured, and the inhibition rate under the five concentration were calculated and fitted to obtain median inhibitory concentration (IC50). Each compound was measured three parallel groups. SMS2 median inhibitory concentration of Scheme I-1˜I-60 are listed below in Table 1: […]

[1] = five concentrations, three parallel groups, experimental value
[2] = at 10 μM, read-out: inhibition rate

Compound: 2-((5-chloro-hexyloxy) benzyloxy)-N-(pyridin-3-yl) benzamide [Scheme I-39]
- inhibition rate (at 5 μM): 85.5%
- IC50 [1]: 500 nM

Compound: 2-((2-chloro-5-fluoro) benzyloxy)-N-(pyridin-3-yl) benzamide [Scheme I-16]
- inhibition rate (at 5 μM): 75.7%
- IC50 [1]: 700 nM

Compound: 2-((5-chloro-2-heptyloxy) benzyloxy)-N-(pyridin-3-yl) benzamide [Scheme I-40]
- inhibition rate (at 5 μM): 87.1%
- IC50 [1]: 400 nM

Compound: CCCCCCOc1ccccc1COc1ccccc1C(=O)Nc1cccnc1 [Scheme I-37, 2-((2-hexyloxy)benzyloxy)-N-(pyridin-3-yl) benzamide]
- inhibition rate (at 10 μM): 90.2%
- IC50 [1]: 700 nM

Compound: O=C(Nc1cccnc1)c1ccccc1OCc1c(Cl)cccc1Cl [Scheme I-17, 2-((2,6-dichlorophenyl)benzyloxy)-N-(pyridin-3-yl) benzamide]
- inhibition at 5 µM (at 5 μM, read-out: inhibition rate): 77.2%
- IC50 [1]: 700 nM

Compound: 2-((3-methoxy) benzyloxy)-N-(pyridin-3-yl) benzamide [Scheme I-23]
- inhibition rate (at 10 μM): 59.8%
- IC50 [1]: 5700 nM

Compound: O=C(Nc1cccnc1)c1ccccc1OCc1cc(Cl)ccc1OCCN1CCOCC1 [Scheme I-51, 2-((5-chloro-2-(2-morpholino-ethoxy))benzyloxy)-N-(pyridin-3-yl) benzamide]
- inhibition at 10 µM [2]: 24.9%
- IC50 [1]: > 50000 nM

Compound: 2-((4-trifluoromethyl) benzyloxy)-N-(pyridin-3-yl) benzamide [Scheme I-20]
- inhibition rate (at 10 μM): 3.9%
- IC50 [1]: > 100000 nM

Compound: 2-(4-bromo-benzyloxy)-N-(pyridin-3-yl) benzamide [Scheme I-9]
- inhibition rate (at 50 μM): 14.7%
- IC50 [1]: > 100000 nM

Compound: 2-((4-methyl) benzyloxy)-N-(pyridin-3-yl) benzamide [Scheme I-14]
- inhibition rate (at 50 μM): 69.0%
- IC50 [1]: > 25000 nM

Compound: 2-((5-fluoro-2-methyl) benzyloxy)-N-(pyridin-3-yl) benzamide [Scheme I-21]
- inhibition rate (at 10 μM): 84.7%
- IC50 [1]: 700 nM

Compound: Cc1cccc(COc2ccccc2C(=O)Nc2cccnc2)c1 [Scheme I-10, 2-((3-methyl)benzyloxy)-N-(pyridin-3-yl) benzamide]
- inhibition at 50 µM (at 50 μM, read-out: inhibition rate): 69.5%
- IC50 [1]: > 25000 nM

Compound: CCCCCCCOc1ccccc1COc1ccccc1C(=O)Nc1cccnc1 [Scheme I-38, 2-((2-heptyloxy)benzyloxy)-N-(pyridin-3-yl) benzamide]
- inhibition at 10 µM [2]: 90.5%
- IC50 [1]: 500 nM

Compound: O=C(O)COc1cccc(COc2ccccc2C(=O)Nc2cccnc2)c1 [Scheme I-48, 2-(3-((2-(pyridin-3-ylcarbamoyl)phenoxy)methyl)phenoxy) acetic acid]
- inhibition at 10 µM [2]: 3%
- IC50 [1]: > 100000 nM

Compound: O=C(Nc1cccnc1)c1ccccc1OCc1cccc(Cl)c1F [Scheme I-18, 2-((2-fluoro-3-chloro)benzyloxy)-N-(pyridin-3-yl) benzamide]
- IC50: 3100 nM
- inhibition at 5 µM (read-out: inhibition rate): 55.2%

Compound: COCCCOc1ccc(Cl)cc1COc1ccccc1C(=O)Nc1cccnc1 [Scheme I-49, 2-((5-chloro-2-(3-methoxy-propoxy))benzyloxy)-N-(pyridin-3-yl) benzamide]
- inhibition at 10 µM [2]: 75.3%
- IC50 [1]: 4100 nM

Compound: O=C(Nc1cccnc1)c1ccccc1OCc1ccccc1OCCCCCl [Scheme I-34, 2-(2-(4-chlorobutoxy)benzyloxy)-N-(pyridin-3-yl) benzamide]
- inhibition at 10 µM [2]: 85.5%
- IC50 [1]: 1400 nM

Compound: 2-((4-ethyl) benzyloxy)-N-(pyridin-3-yl) benzamide [Scheme I-28]
- inhibition rate (at 10 μM): 10.1%
- IC50 [1]: > 100000 nM

Compound: COc1ccc(OCc2ccccc2Cl)c(C(=O)Nc2cccnc2)c1 [Scheme I-59, 2-(2-chloro-benzyloxy)-5-methoxy-N-(pyridin-3-yl) benzamide]
- inhibition at 10 µM [2]: 7.2%
- IC50 [1]: > 100000 nM

Compound: O=C(Nc1cccnc1)c1ccccc1OCc1ccccc1C(F)(F)F [Scheme I-42, 2-((2-trifluoromethyl)benzyloxy)-N-(pyridin-3-yl) benzamide]
- inhibition rate (at 5 μM): 65.5%
- IC50 [1]: 2100 nM
